Assay [1] has as its system PRP (ADP platelet agglutination). Briefly: ADP platelet agglutination inhibitory action by PRP. Further details: reference not given here. The assay is classed as cell-based. The settings on record: 37° C., 0.025 μm filtrate. The procedure: Fifty (50) μl of the fat emulsion obtained in Examples 1 and 2 was transferred into 950 μl of saline or 2 % bovine serum albumin (BSA) and incubated at 37° C. for 1, 3, and 10 minutes. Next, the ADP platelet agglutination inhibitory action by PRP was determined using the filtrate which had been passed through a 0.025 μm filter. A known quantity of the dilution before filtration was added to PRP and incubated at 37° C. for 1 minute. Thereafter, ADP agglutination was induced to construct a dose-response curve. The platelet agglutination inhibitory action was calculated from this curve.

For a further assay, the system named is human platelets. Briefly: Time course of the formation of cyclic AMP using human platelets (production capability and maintenance of cyclic AMP). In kind it is cell-based. The settings on record: for Relative value (C-AMP production): first time point of the series = 100; for C-AMP production: human platelets, 37° C. The procedure:
The time course of the formation of cyclic AMP by the fat emulsion in the invention was determined using human platelets so as to compare with the time course of the compound which was not emulsified in fat. Human blood 50 ml was collected using 1 part of 3.8 % sodium citrate for 9 parts of blood. The blood sample was centrifuged at 1300 rpm for 10 minutes. The upper layer was taken out as PRP (platelet-rich plasma) and centrifuged at 3000 rpm for 20 minutes. The precipitate thus obtained (platelets) was suspended in 2 ml of Tris buffered solution-saline-glucose-EDTA (TSG-EDTA) (pH 7.4).
The fat emulsion, which had previously been transferred in a plastic tube containing 350 μl of TSG-EDIA and 50 μl of platelet suspension and incubated at 37° C., was supplemented with 50 μl of 5mM isobutylmethylxanthin dissolved in saline, and 2 minutes later, reactions were stopped with 0.5 ml of 10% trichloroacetic acid (TCA). The cells were destroyed by thawing the lyophilized specimen in order to release intracellular cyclic AMP. After removal of TCA with watersaturated ether, the content of C-AMP was determined by radio immunoassay technique.

`CCCCCC(O)C=CC1C(O)CC2C=C(CCCCC(=O)OC)CC21` (centres unmarked) [(IV), isocarbacyclin methyl ester]: the “Platelet agglutination inhibitory action” value stood at 65.4% in assay [1] (2% BSA, incubation time 1 min) and 56.2% in assay [1] (2% BSA, incubation time 10 min).
In the case of `CCCCCC(O)C=CC1C(O)CC2C=C(CCCCC(=O)O)CC21` (stereo not drawn) [Compound (I), 9(0)-methano-Δ^6(9α) -PGI1], the “Relative value (C-AMP production)” value is 100% in the assay on human platelets (Time 0 min), 63% in the assay on human platelets (Time 30 min) and 31% in the assay with human platelets (Time 60 min). Besides, the results for the C-AMP production in the assay on human platelets (Time 0 min), in the assay with human platelets (Time 30 min) and in the assay on human platelets (Time 60 min) were 320 pico mol, 200 pico mol and 100 pico mol, respectively. In addition, the “Platelet agglutination inhibitory action” value came to 100.1% in assay [1] (2% BSA, incubation time 1 min); 107.7% in assay [1] (2% BSA, incubation time 10 min); 41.1% in assay [1] (Saline, incubation time 10 min).
Turning to `CCCCCC(O)C=CC1C(O)CC2C=C(CCCCC(=O)O)CC21` (centres unmarked) [Compound (II), 16,17,18,19,20-pentanor-15-pentylisocarbacyclin], the “Relative value (C-AMP production)” value with human platelets (Time 10 min) was found to be 100%; with human platelets (Time 30 min) it was 74%; in the assay on human platelets (Time 60 min) it was 27%. The results for the C-AMP production in the assay on human platelets (Time 10 min), in the assay on human platelets (Time 30 min) and in the assay on human platelets (Time 60 min) were 430 pico mol, 320 pico mol and 120 pico mol, respectively.
For `COC(=O)CCCC=C1OC2CC(O)C(C=CC(O)C3CCCC3)C2C1F` (centres unmarked) [Compound (III), 7-fluoro-16,17,18,19, 20-pentanor-15-cyclopentylprostacyclin methyl ester], the “Relative value (C-AMP production)” value worked out at 100% with human platelets (Time 30 min), 90% in the assay with human platelets (Time 60 min) and 40% with human platelets (Time 120 min). For the same compound, the C-AMP production in the assay on human platelets (Time 30 min) amounted to 100 pico mol; in the assay on human platelets (Time 60 min), 90 pico mol; in the assay with human platelets (Time 120 min), 40 pico mol.

Source of the values: US5124352A, “Fat emulsions containing isocarbacyclin” (Teijin Limited, priority 1985, dated 1992).
